Measured values from ChEMBL document CHEMBL3826932, “An orally available tyrosine kinase ALK and RET dual inhibitor bearing the tetracyclic benzo[b]carbazolone core” (Eur J Med Chem, 2016).
Activity calls are given as the source filed them. The calls are words filed in the database; no cut-off is given here.

Assays:
cells [1] = conditions: Homo sapiens, NCI-H3122, 72 h
Description: Antiproliferative activity against human NCI-H3122 cells after 72 hrs by SRB/CCK-8 assay

cells [2] = conditions: Mus musculus, NIH3T3, 72 h
Description: Antiproliferative activity against mouse NIH/3T3 cells expressing EML4-ALK L1196 mutant after 72 hrs by SRB/CCK-8 assay

animal or person [3] = conditions: Mus musculus, NIH3T3, po, 240 h, read-out: TGI
Description: Antitumor activity against mouse NIH/3T3 cells expressing EML4-ALK L1196M mutant xenografted in nude mouse assessed as tumor growth inhibition at 50 mg/kg, po qd administered for 10 days

animal or person [4] = conditions: Mus musculus, NIH3T3, po, 240 h, read-out: TGI; remark: listed apart in the source
Description: Antitumor activity against mouse NIH/3T3 cells expressing wild type EML4-ALK xenografted in nude mouse assessed as tumor growth inhibition at 50 mg/kg, po qd administered for 10 days

cells [5] = conditions: Homo sapiens, SUP-M2, 72 h
Description: Antiproliferative activity against human SUP-M2 cells after 72 hrs by SRB/CCK-8 assay

NIH3T3 [6] = test: Antitumor activity against mouse NIH/3T3 cells expressing EML4-ALK L1196M mutant xenografted in nude mouse assessed as tumor stasis at 50 mg/kg, po qd administered for 10 days; type: functional, organism-based
cells [7] = conditions: Homo sapiens, KARPAS-299, 72 h
Description: Antiproliferative activity against human KARPAS299 cells after 72 hrs by SRB/CCK-8 assay

NIH3T3 [8] = test: Antitumor activity against mouse NIH/3T3 cells expressing EML4-ALK L1196M mutant xenografted in nude mouse assessed as partial tumor regression at 50 mg/kg, po qd administered for 10 days; type: functional, organism-based
cells [9] = conditions: Homo sapiens, SU-DHL-1, 72 h
Description: Antiproliferative activity against human SU-DHL1 cells after 72 hrs by SRB/CCK-8 assay

cells [10] = conditions: Mus musculus, NIH3T3, 72 h; remark: listed apart in the source
Description: Antiproliferative activity against mouse NIH/3T3 cells expressing wild type EML4-ALK after 72 hrs by SRB/CCK-8 assay

[11] = molecular target: T1, Proto-oncogene tyrosine-protein kinase receptor Ret (Homo sapiens, UniProt P07949); test: biochemical
[12] = molecular target: T1, Proto-oncogene tyrosine-protein kinase receptor Ret; test: Inhibition of RET (unknown origin) in mouse BaF3/CCDC6-RET cells assessed as suppression of STAT3 phosphorylation at Y705 residue after 1 hr by Western blot analysis; type: cell-based
[13] = molecular target: Platelet-derived growth factor receptor alpha (Homo sapiens, UniProt P16234); test: Inhibition of N-terminal His6-tagged recombinant human PDGFRalpha (550 residues) expressed in insect Sf21 cells using poly(Glu,Tyr)4:1 as substrate incubated for 60 mins by ELISA
[14] = Antitumor activity against mouse NIH/3T3 cells expressing EML4-ALK L1196M mutant xenografted in nude mouse assessed as tumor growth inhibition at 20 mg/kg, po qd administered for 10 days; type: functional; conditions: NIH3T3, po, 240 h, read-out: TGI
[15] = molecular target: Epidermal growth factor receptor (Homo sapiens, UniProt P00533, L858R/T790M); test: Inhibition of N-terminal GST-tagged recombinant human EGFR T790M/L858R double mutant (696 residues) expressed in insect Sf21 cells using poly(Glu,Tyr)4:1 as substrate incubated for 60 mins by ELISA
[16] = molecular target: Proto-oncogene tyrosine-protein kinase ROS (Homo sapiens, UniProt P08922); test: Inhibition of recombinant ROS1 (unknown origin) using poly(Glu,Tyr)4:1 as substrate incubated for 60 mins by ELISA
Mus musculus = test: Toxicity in nude mouse assessed as weight loss at 20 to 40 mg/kg, po qd administered for 10 days; type: organism-based; conditions: in vivo, 240 h
[17] = molecular target: Receptor-type tyrosine-protein kinase FLT3 (Homo sapiens, UniProt P36888); test: Inhibition of N-terminal GST-tagged recombinant human FLT3 (564 residues) expressed in insect Sf21 cells using poly(Glu,Tyr)4:1 as substrate incubated for 60 mins by ELISA
[18] = molecular target: Vascular endothelial growth factor receptor 2 (Homo sapiens, UniProt P35968); test: Inhibition of N-terminal His6-tagged recombinant human KDR (790 residues) expressed in insect Sf21 cells using poly(Glu,Tyr)4:1 as substrate incubated for 60 mins by ELISA
[19] = molecular target: Platelet-derived growth factor receptor beta (Homo sapiens, UniProt P09619); test: Inhibition of N-terminal His6-tagged recombinant human PDGFRbeta (557 residues) expressed in insect Sf21 cells using poly(Glu,Tyr)4:1 as substrate incubated for 60 mins by ELISA
[20] = Antitumor activity against mouse NIH/3T3 cells expressing EML4-ALK L1196M mutant xenografted in nude mouse assessed as tumor growth inhibition at 40 mg/kg, po qd administered for 10 days; type: functional; conditions: NIH3T3, po, 240 h, read-out: TGI
[21] = molecular target: Tyrosine-protein kinase receptor TYRO3 (Homo sapiens, UniProt Q06418); test: Inhibition of N-terminal His6-tagged recombinant human TYRO3 (451 residues) expressed in insect Sf21 cells using poly(Glu,Tyr)4:1 as substrate incubated for 60 mins by ELISA
[22] = molecular target: Mast/stem cell growth factor receptor Kit (Homo sapiens, UniProt P10721); test: Inhibition of N-terminal GST-tagged recombinant human c-Kit (544 residues) expressed in insect Sf21 cells using poly(Glu,Tyr)4:1 as substrate incubated for 60 mins by ELISA
[23] = molecular target: Hepatocyte growth factor receptor (Homo sapiens, UniProt P08581); test: Inhibition of N-terminal His6-tagged recombinant human c-Met (974 residues) expressed in insect Sf21 cells using poly(Glu,Tyr)4:1 as substrate incubated for 60 mins by ELISA
[24] = molecular target: Fibroblast growth factor receptor 1 (Homo sapiens, UniProt P11362); test: Inhibition of N-terminal GST-tagged recombinant human FGFR1 (456 to 765 residues) expressed in insect Sf21 cells using poly(Glu,Tyr)4:1 as substrate incubated for 60 mins by ELISA
NIH3T3 [25] = test: Antitumor activity against mouse NIH/3T3 cells expressing wild type EML4-ALK xenografted in nude mouse assessed as tumor stasis at 20 to 40 mg/kg, po qd administered for 10 days; type: functional, organism-based
[26] = molecular target: Tyrosine-protein kinase ABL1 (Mus musculus, UniProt P00520); test: Inhibition of N-terminal His6-tagged recombinant mouse ABL (27 to 1123 residues) expressed in insect Sf21 cells using poly(Glu,Tyr)4:1 as substrate incubated for 60 mins by ELISA
[27] = molecular target: Receptor tyrosine-protein kinase erbB-4 (Homo sapiens, UniProt Q15303); test: Inhibition of N-terminal His6-tagged recombinant human ErbB4 (709 to 991 residues) expressed in insect Sf21 cells using poly(Glu,Tyr)4:1 as substrate incubated for 60 mins by ELISA
[28] = molecular target: T1, Proto-oncogene tyrosine-protein kinase receptor Ret; test: Inhibition of RET (unknown origin) in mouse BaF3/CCDC6-RET cells assessed as suppression of ERK1/2 phosphorylation at T202/Y204 residue after 1 hr by Western blot analysis; type: cell-based
[29] = molecular target: Proto-oncogene tyrosine-protein kinase Src (Homo sapiens, UniProt P12931); test: Inhibition of recombinant human c-Src expressed in insect Sf9 cells using poly(Glu,Tyr)4:1 as substrate incubated for 60 mins by ELISA
[30] = Antitumor activity against mouse NIH/3T3 cells expressing wild type EML4-ALK xenografted in nude mouse assessed as tumor growth inhibition at 40 mg/kg, po qd administered for 10 days; type: functional; conditions: NIH3T3, po, 240 h, read-out: TGI
[31] = molecular target: T1, Proto-oncogene tyrosine-protein kinase receptor Ret; test: Inhibition of RET (unknown origin) phosphorylation at […] residue in mouse BaF3/CCDC6-RET cells after 1 hr by Western blot analysis; type: cell-based
[32] = Antitumor activity against mouse NIH/3T3 cells expressing wild type EML4-ALK xenografted in nude mouse assessed as tumor growth inhibition at 20 mg/kg, po qd administered for 10 days; type: functional; conditions: NIH3T3, po, 240 h, read-out: TGI
[33] = molecular target: Vascular endothelial growth factor receptor 1 (Homo sapiens, UniProt P17948); test: Inhibition of N-terminal GST-tagged recombinant human FLT1 (783 residues) expressed in insect Sf21 cells using poly(Glu,Tyr)4:1 as substrate incubated for 60 mins by ELISA
[34] = molecular target: T1, Proto-oncogene tyrosine-protein kinase receptor Ret; test: Inhibition of RET (unknown origin) in mouse BaF3/CCDC6-RET cells assessed as suppression of AKT phosphorylation at S473 residue after 1 hr by Western blot analysis; type: cell-based
[35] = molecular target: Macrophage-stimulating protein receptor (Homo sapiens, UniProt Q04912); test: Inhibition of N-terminal His6-tagged recombinant human Ron (983 residues) expressed in insect Sf21 cells using poly(Glu,Tyr)4:1 as substrate incubated for 60 mins by ELISA
[36] = molecular target: Leukocyte tyrosine kinase receptor (Homo sapiens, UniProt P29376); test: Inhibition of recombinant LTK (unknown origin) using poly(Glu,Tyr)4:1 as substrate incubated for 60 mins by ELISA
NIH3T3 [37] = test: Antitumor activity against mouse NIH/3T3 cells expressing wild type EML4-ALK xenografted in nude mouse assessed as partial tumor regression at 20 to 40 mg/kg, po qd administered for 10 days; type: functional, organism-based
[38] = molecular target: Tyrosine-protein kinase receptor UFO (Homo sapiens, UniProt P30530); test: Inhibition of recombinant human AXL using poly(Glu,Tyr)4:1 as substrate incubated for 60 mins by ELISA
NIH3T3 [39] = test: Antitumor activity against mouse NIH/3T3 cells expressing EML4-ALK L1196M mutant xenografted in nude mouse assessed as partial tumor regression at 40 mg/kg, po qd administered for 10 days; type: functional, organism-based
[40] = molecular target: Insulin-like growth factor 1 receptor (Homo sapiens, UniProt P08069); test: Inhibition of N-terminal His6-tagged recombinant human IGF-1R (959 residues) expressed in insect Sf21 cells using poly(Glu,Tyr)4:1 as substrate incubated for 60 mins by ELISA
NIH3T3 [41] = test: Antitumor activity against mouse NIH/3T3 cells expressing EML4-ALK L1196M mutant xenografted in nude mouse assessed as tumor stasis at 40 mg/kg, po qd administered for 10 days; type: functional, organism-based
[42] = molecular target: Receptor tyrosine-protein kinase erbB-2 (Homo sapiens, UniProt P04626); test: Inhibition of human ErbB2 using poly(Glu,Tyr)4:1 as substrate incubated for 60 mins by ELISA

T1 sequence (P07949 whole entry): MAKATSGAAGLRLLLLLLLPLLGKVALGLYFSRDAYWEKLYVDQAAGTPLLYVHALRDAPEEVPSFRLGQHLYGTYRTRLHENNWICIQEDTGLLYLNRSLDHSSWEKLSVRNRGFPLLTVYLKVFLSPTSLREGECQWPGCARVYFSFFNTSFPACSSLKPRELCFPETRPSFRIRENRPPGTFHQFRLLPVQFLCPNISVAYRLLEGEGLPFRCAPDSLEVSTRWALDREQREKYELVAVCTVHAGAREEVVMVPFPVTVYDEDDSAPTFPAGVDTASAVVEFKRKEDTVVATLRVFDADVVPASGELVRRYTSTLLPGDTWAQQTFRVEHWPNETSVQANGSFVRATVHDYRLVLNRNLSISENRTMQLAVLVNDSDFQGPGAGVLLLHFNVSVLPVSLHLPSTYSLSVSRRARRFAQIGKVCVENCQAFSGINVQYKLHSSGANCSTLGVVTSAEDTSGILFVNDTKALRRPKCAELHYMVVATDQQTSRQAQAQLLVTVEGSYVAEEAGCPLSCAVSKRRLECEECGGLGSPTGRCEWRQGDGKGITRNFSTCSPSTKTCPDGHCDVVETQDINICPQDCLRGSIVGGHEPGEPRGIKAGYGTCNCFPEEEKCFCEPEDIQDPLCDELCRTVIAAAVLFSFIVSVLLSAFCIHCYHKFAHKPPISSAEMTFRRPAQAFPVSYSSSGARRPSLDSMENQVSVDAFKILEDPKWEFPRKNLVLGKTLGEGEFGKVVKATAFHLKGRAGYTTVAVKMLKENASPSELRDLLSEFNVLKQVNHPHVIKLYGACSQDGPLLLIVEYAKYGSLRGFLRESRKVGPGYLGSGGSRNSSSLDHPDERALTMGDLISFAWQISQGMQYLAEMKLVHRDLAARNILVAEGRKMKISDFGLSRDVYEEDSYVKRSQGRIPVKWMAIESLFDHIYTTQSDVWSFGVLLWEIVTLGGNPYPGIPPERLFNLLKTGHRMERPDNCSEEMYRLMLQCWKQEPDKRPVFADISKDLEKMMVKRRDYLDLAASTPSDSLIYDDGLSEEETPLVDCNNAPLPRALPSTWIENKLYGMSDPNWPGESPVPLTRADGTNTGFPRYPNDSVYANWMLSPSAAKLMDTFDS
Sequence of Platelet-derived growth factor receptor alpha (P16234 whole entry): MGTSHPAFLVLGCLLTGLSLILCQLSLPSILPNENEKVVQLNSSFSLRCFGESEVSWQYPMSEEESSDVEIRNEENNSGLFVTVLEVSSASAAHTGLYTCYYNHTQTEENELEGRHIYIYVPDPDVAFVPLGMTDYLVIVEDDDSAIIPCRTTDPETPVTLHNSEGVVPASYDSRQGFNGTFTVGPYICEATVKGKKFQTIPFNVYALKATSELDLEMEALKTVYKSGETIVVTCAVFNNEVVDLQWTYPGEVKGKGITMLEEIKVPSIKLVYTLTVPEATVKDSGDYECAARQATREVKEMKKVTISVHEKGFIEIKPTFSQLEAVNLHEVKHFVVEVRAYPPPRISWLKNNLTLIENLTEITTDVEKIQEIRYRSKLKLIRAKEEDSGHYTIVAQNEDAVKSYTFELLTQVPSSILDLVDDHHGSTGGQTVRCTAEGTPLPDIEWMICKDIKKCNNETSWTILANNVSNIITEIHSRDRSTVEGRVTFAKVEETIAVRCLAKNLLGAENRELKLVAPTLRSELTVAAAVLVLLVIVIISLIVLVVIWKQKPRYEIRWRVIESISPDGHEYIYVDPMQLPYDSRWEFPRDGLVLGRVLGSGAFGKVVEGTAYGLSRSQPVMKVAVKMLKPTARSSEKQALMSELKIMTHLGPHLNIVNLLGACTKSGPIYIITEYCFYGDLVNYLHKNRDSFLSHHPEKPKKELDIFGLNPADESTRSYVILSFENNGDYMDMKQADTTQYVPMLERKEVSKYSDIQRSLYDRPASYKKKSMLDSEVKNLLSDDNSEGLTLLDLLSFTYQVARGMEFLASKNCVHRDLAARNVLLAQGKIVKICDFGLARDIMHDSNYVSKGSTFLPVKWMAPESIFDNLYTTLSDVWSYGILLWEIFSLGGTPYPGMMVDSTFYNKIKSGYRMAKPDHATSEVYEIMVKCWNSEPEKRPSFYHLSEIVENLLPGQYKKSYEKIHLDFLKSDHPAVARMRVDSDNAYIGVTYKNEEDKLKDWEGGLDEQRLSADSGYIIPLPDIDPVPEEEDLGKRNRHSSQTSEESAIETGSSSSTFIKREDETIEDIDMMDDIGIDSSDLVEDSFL
Sequence of Proto-oncogene tyrosine-protein kinase Src (P12931 2-536 limits assumed): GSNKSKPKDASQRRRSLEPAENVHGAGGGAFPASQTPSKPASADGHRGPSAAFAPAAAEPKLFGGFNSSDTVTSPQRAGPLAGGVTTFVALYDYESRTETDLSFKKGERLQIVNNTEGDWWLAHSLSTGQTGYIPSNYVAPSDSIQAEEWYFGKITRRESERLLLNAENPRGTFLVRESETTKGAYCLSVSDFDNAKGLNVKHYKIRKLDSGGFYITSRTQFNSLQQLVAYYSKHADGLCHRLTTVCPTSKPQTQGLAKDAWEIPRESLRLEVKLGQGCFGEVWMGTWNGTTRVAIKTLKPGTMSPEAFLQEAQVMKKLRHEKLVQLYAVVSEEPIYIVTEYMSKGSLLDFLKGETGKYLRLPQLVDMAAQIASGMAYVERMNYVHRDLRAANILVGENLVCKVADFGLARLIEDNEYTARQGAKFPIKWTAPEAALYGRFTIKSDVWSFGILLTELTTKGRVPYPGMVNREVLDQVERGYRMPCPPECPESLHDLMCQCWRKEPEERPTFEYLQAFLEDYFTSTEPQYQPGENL
Sequence of Platelet-derived growth factor receptor beta (P09619 whole entry): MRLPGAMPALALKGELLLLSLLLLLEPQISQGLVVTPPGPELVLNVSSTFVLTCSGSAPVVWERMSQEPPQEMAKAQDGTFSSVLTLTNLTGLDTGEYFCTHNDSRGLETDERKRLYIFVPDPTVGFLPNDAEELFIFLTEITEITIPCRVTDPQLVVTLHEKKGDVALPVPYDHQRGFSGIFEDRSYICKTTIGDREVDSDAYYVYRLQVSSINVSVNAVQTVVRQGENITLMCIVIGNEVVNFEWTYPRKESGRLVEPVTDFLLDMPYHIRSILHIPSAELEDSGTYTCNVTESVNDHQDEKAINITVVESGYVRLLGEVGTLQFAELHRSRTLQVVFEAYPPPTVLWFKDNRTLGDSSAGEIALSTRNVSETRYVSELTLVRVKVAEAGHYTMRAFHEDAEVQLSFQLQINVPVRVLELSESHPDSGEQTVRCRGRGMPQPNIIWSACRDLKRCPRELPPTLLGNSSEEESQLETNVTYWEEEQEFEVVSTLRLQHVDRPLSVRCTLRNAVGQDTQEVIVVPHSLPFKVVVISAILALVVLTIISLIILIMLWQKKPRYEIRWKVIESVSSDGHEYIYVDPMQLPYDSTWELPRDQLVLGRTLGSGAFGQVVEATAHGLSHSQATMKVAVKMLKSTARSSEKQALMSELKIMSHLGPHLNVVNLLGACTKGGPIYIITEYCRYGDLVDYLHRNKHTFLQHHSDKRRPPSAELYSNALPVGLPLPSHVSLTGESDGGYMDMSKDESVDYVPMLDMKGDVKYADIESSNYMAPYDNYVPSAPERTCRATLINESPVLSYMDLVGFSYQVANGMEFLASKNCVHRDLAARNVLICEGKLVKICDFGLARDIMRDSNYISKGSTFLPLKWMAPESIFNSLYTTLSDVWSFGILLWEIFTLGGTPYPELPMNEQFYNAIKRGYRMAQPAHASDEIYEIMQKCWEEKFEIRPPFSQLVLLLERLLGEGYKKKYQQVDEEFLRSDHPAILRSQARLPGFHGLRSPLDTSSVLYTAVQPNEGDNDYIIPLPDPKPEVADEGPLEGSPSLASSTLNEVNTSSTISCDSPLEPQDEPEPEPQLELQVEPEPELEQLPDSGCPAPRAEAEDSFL
Sequence of Epidermal growth factor receptor (P00533 25-1210 T790M/L858R limits assumed): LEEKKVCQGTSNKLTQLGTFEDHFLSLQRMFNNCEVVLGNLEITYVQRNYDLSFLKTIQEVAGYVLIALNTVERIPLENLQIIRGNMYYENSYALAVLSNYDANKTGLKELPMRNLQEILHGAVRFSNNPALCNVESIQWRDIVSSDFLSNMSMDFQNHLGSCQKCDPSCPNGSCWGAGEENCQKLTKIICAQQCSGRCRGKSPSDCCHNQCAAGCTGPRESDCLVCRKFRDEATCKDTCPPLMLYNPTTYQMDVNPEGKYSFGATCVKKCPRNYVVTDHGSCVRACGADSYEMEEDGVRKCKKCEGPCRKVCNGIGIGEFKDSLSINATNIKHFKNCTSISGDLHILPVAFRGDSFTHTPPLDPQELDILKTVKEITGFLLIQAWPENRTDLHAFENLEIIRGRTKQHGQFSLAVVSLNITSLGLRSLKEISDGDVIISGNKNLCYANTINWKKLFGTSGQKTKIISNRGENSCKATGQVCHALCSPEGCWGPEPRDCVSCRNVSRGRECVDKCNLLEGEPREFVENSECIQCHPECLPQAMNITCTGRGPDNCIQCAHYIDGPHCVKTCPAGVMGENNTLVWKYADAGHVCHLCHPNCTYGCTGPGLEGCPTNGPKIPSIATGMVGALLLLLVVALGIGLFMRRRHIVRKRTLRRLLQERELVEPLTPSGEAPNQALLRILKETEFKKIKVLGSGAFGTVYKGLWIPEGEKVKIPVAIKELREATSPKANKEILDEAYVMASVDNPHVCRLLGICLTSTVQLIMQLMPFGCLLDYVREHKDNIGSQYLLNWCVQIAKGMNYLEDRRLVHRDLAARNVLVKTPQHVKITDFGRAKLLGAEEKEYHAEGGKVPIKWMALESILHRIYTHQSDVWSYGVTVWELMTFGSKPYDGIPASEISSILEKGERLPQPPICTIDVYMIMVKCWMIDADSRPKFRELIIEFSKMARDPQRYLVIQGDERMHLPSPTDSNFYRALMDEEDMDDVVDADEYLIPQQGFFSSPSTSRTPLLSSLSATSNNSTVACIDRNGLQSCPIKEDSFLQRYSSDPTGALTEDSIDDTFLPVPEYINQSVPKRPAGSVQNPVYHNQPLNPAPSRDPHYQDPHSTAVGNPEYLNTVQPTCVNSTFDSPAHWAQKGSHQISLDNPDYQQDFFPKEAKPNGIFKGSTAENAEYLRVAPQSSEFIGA

Work on `CCc1cc2c(cc1N1CCC(N3CCOCC3)CC1)C(C)(C)c1[nH]c3cc(C#N)ccc3c1C2=O` [ALECTINIB] yielded an IC50 (cells [1]) of 17.4 nM, an IC50 (cells [2]) of 132 nM and an inhibition in vivo at 50 mg/kg (animal or person [3]) of 83.5%. The inhibition in vivo at 50 mg/kg (animal or person [4]) was 103%, the IC50 (cells [5]) was 17.9 nM and the Activity (NIH3T3 [6]) was “Active”. For the same compound, the IC50 (cells [7]) was 15 nM, the Activity (NIH3T3 [8]) was “Active” and the IC50 (cells [9]) was 20.5 nM. It also gave an IC50 (cells [10]) of 32.3 nM.
In the case of `CC1(C)c2cc(C3CCN(CC4CCOCC4)CC3)ccc2C(=O)c2c1[nH]c1cc(C#N)ccc21`, the IC50 [11] is reported as 1.6 nM, the inhibition [12] is reported as “Dose-dependent effect” and the IC50 [13] is reported as 402 nM. The inhibition in vivo at 20 mg/kg [14] was 56.9%, the IC50 [15] was 350 nM and the IC50 [16] was greater than 1000 nM. For the same compound, the Activity (Mus musculus) was “Non-toxic”, the IC50 (cells [1]) was 43.3 nM and the IC50 [17] was 85.7 nM. It also gave an IC50 [18] of 104 nM, an IC50 [19] of 64.2 nM and an inhibition in vivo at 40 mg/kg [20] of 87.3%. The IC50 [21] was 71.9 nM, the IC50 (cells [2]) was 196 nM and the IC50 [22] was greater than 1000 nM. For the same compound, the IC50 [23] was greater than 1000 nM, the IC50 [24] was greater than 1000 nM and the Activity (NIH3T3 [25]) was “Active”. For the same compound, the IC50 (cells [5]) was 22.9 nM, the IC50 [26] was greater than 1000 nM and the IC50 [27] was 213 nM. For the same compound, the inhibition [28] was “Dose-dependent effect”, the IC50 [29] was 75.4 nM and the inhibition in vivo at 40 mg/kg [30] was 102%. The IC50 (cells [7]) was 44.8 nM, the inhibition [31] was “Dose-dependent effect” and the inhibition in vivo at 20 mg/kg [32] was 102%. For the same compound, the IC50 [33] was 159 nM, the inhibition [34] was “Dose-dependent effect” and the IC50 [35] was 93.4 nM. The IC50 [36] was 43.1 nM, the Activity (NIH3T3 [37]) was “Active” and the IC50 [38] was 170 nM. For the same compound, the Activity (NIH3T3 [39]) was “Active”, the IC50 (cells [9]) was 48.3 nM and the IC50 [40] was 27.8 nM. The Activity (NIH3T3 [41]) was “Active”, the IC50 (cells [10]) was 46.7 nM and the IC50 [42] was greater than 1000 nM.
